Measured values reported in patent publication US10786509B2, “Treatment and prevention of atherothrombosis by inhibition of bruton's tyrosine kinase (BTK)” (priority 2016, dated 2020).
Values joined by “and” are separate entries in the source; they are usually repeats but may differ in a detail not shown here. Equal values may be shown once. Read-outs that look alike come from different tables or passages of the source.

Legend:
[1] = test system: platelet aggregation in blood; assay: Platelet aggregation in blood by multiple electrode aggregometry (MEA), static, inhibitor added in vitro; format: cell-based, human; conditions: for IC50: Homo sapiens, Platelet, 15 min pre-incubation, MEA; for collagen-induced platelet aggregation / platelet aggregation stimulated by TRAP, ADP or AA: 2 μM; for collagen-induced platelet aggregation: compared with plaque-induced aggregation; for maximal suppression of plaque-induced platelet aggregation: ACP-196 at 1 μM, ONO/GS-4059 at 2 μM
Description: The first 3 ml of blood drawn into an empty syringe were discarded. Experiments were performed between 30 min and 4 h after venipuncture. […] (Bampalis V G. et al.

[2] = test system: platelet deposition onto plaque homogenate, plaque tissue sections or collagen; assay: Platelet aggregation and thrombus formation in flowing whole blood (parallel plate flow chamber), inhibitor added in vitro; format: cell-based, human; conditions: for final platelet aggregate formation onto collagen fibers: up to 2 μM, only delayed at highest concentrations
[3] = test system: platelet deposition onto plaque homogenate or collagen; assay: Ex vivo platelet thrombus formation under arterial flow in two healthy volunteers after oral Imbruvica; parameters: species or system human; conditions: shear rate 600/s
Description: For experiments in flowing blood, glass cover slips (Menzel, 24×60 mm, #1.5) coated with collagen (20 μg/ml), plaque homogenates or plaque tissue sections were assembled into parallel plate flow chambers using sticky slides (0.1 Luer sticky slides, Ibidi®, Martinsried, Germany) which had been blocked before with human serum albumin (HSA; 4% in PBS).
Fluorescence microscopy (excitation: 485/25 nm, emission: 528/38 nm) was performed for real time measurement of platelet adhesion and aggregate formation using a 10× air objective (NA 0.4) and a CoolSNAP HQ2 CCD camera (Photometrics, Tucson, USA).

[4] = test system: platelet aggregation in blood; assay: Ex vivo static platelet aggregation (MEA) in two healthy volunteers after oral Imbruvica
[5] = Blood counts, liver enzymes and tolerability in two healthy volunteers after oral Imbruvica
[6] = plaque 833 μg/ml, static, read-out: IC50 for inhibition of plaque-induced platelet aggregation
[7] = donor B, after 1 week 140 mg each other day
[8] = donor A, 1 week after low dose Imbruvica (140 mg/d)
[9] = donor A, 3 h after Imbruvica loading dose (3×140 mg)
[10] = donor B, 1 week after low dose Imbruvica (140 mg each other day)
[11] = donor B, 3 h after Imbruvica loading dose (3×140 mg)
[12] = plaque-induced platelet aggregation, static

C=CC(=O)N1CCC[C@@H](n2nc(-c3ccc(Oc4ccccc4)cc3)c3c(N)ncnc32)C1 [ibrutinib, 1-[(3R)-3-[4-Amino-3-(4-phenoxyphenyl)-1H-pyrazolo[3,4-d]pyrimidin-1-yl]piperidin-1-yl]prop-2-en-1-one]
reduction of platelet aggregation stimulated by ADP ([1]; 1 μM, ADP 5 μM, static): −13%
reduction of platelet aggregation stimulated by TRAP ([1]; 1 μM, TRAP 5 μM, static): −31%
platelet aggregation upon stimulation with collagen ([1]; 1 μM, collagen, static): almost completely inhibited
spontaneous minimal platelet aggregation in the absence of stimuli ([1]; 1 μM, no stimulus): abolished
platelet aggregation upon stimulation with plaque ([1]; 1 μM, plaque 833 μg/ml, static): almost completely inhibited
IC50 ([1]; collagen, static, read-out: IC50 for inhibition of collagen-stimulated platelet aggregation): 120 ± 40 nM
IC50 [1, 6]: 180 ± 50 nM
concentration at which maximal suppression was reached ([1]; plaque- and collagen-stimulated platelet aggregation, static): 0.5 µM
platelet aggregation onto collagen ([2]; 0.2 μM and 0.5 μM, high shear rate 1500/s): did not reduce
change of platelet thrombus formation onto plaque homogenate ([2]; 0.2 μM, high shear rate 1500/s): −69±16%
change of collagen-induced platelet aggregation ([2]; 0.2 μM, shear rate 600/s): +1±6%
change of platelet aggregation onto plaque homogenate ([2]; 0.2 μM, shear rate 600/s): −43±27%
change of platelet aggregation onto plaque tissue ([2]; 0.2 μM, shear rate 600/s): −33±23%
change of platelet thrombus formation onto plaque homogenate ([2]; 0.5 μM, high shear rate 1500/s): −93±5%
change of collagen-induced platelet aggregation ([2]; 0.5 μM, shear rate 600/s): +3±9%
change of platelet aggregation onto plaque homogenate ([2]; 0.5 μM, shear rate 600/s): −84±8%
change of platelet aggregation onto plaque tissue ([2]; 0.5 μM, shear rate 600/s): −44±30%
change of final platelet aggregate formation onto collagen fibers ([2]; 1 μM, shear rate 600/s): +8±2%
change of platelet aggregation onto plaque homogenate ([2]; 1 μM, shear rate 600/s): −98±1%
change of platelet thrombus formation onto plaque tissue ([2]; 1 μM, shear rate 600/s): −76±16%
platelet adhesion onto plaque homogenate ([2]; 1 μM, shear rate 600/s): preserving platelet adhesion
plaque-induced thrombus formation under arterial flow ([3]; after 1 week 140 mg/d (donor A) or 140 mg each other day (donor B)): suppressed
plaque-induced thrombus formation under arterial flow ([3]; both donors, 3 h after loading dose 3×140 mg): suppressed
inhibition of plaque-induced platelet aggregation at each day tested ([4]; donor A, 140 mg/d during the week, blood taken 23 h or 3 h post dose): > 90%
inhibition of collagen-induced platelet aggregation ([4]; donor A, 3 h after loading dose 3×140 mg): 91%
inhibition of platelet aggregation induced by two plaque homogenate pools ([4]; donor A, 3 h after loading dose 3×140 mg, one value per pool, listed as Imbruvica): 94% and 93%
inhibition of platelet aggregation after collagen stimulation ([4]; donor A, after 1 week 140 mg/d): 91%
reduction of platelet aggregation stimulated by TRAP ([4]; donor A, after 1 week 140 mg/d): 70%
inhibition of platelet aggregation stimulated by two plaque homogenate pools ([4]; donor A, after 1 week 140 mg/d, one value per pool, listed as Imbruvica): 94% and 91%
reduction of platelet aggregation after collagen stimulation ([4]; donor B, 3 h after loading dose 3×140 mg): 58%
reduction of platelet aggregation after plaque stimulation (two pools) ([4]; donor B, 3 h after loading dose 3×140 mg, one value per pool, listed as Imbruvica): 68% and 77%
inhibition of platelet aggregation after collagen stimulation [4, 7]: 82%
reduction of platelet aggregation stimulated by TRAP [4, 7]: 45%
inhibition of platelet aggregation stimulated by two plaque homogenate pools ([4]; donor B, after 1 week 140 mg each other day, one value per pool, listed as Imbruvica): 93% and 91%
platelet aggregation induced by TRAP, ADP or AA ([4]; donors A and B, 3 h after loading dose 3×140 mg): barely inhibited
platelet aggregation induced by ADP or AA ([4]; donors A and B, after 1 week low dose): barely inhibited
B-lymphocytes (measured by FACS) ([5]; both donors): rather increased then decreased
HCT [5, 8]: 36.7
Hb [5, 8]: 13.0 g/dL
Lymphocytes [5, 8]: 2900 µL⁻¹
Lymphocytes, % [5, 8]: 45.9%
Monocytes [5, 8]: 500 µL⁻¹
Monocytes, % [5, 8]: 8.1%
Neutrophils [5, 8]: 2900 µL⁻¹
Neutrophils, % [5, 8]: 46%
Platelets [5, 8]: 217000 µL⁻¹
Red blood cells [5, 8]: 4.22e+06 µL⁻¹
HCT [5, 9]: 36.8
Hb [5, 9]: 12.4 g/dL
Lymphocytes [5, 9]: 2600 µL⁻¹
Lymphocytes, % [5, 9]: 44%
Monocytes [5, 9]: 300 µL⁻¹
Monocytes, % [5, 9]: 5.8%
Neutrophils [5, 9]: 2900 µL⁻¹
Neutrophils, % [5, 9]: 50.2%
Platelets [5, 9]: 247000 µL⁻¹
Red blood cells [5, 9]: 4.07e+06 µL⁻¹
HCT [5, 10]: 44
Hb [5, 10]: 16.1 g/dL
Lymphocytes [5, 10]: 2000 µL⁻¹
Lymphocytes, % [5, 10]: 29.5%
Monocytes [5, 10]: 900 µL⁻¹
Monocytes, % [5, 10]: 12.5%
Neutrophils [5, 10]: 3900 µL⁻¹
Neutrophils, % [5, 10]: 58%
Platelets [5, 10]: 160000 µL⁻¹
Red blood cells [5, 10]: 4.91e+06 µL⁻¹
HCT [5, 11]: 47.8
Hb [5, 11]: 17.2 g/dL
Lymphocytes [5, 11]: 1700 µL⁻¹
Lymphocytes, % [5, 11]: 27.0%
Monocytes [5, 11]: 700 µL⁻¹
Monocytes, % [5, 11]: 10.7%
Neutrophils [5, 11]: 4000 µL⁻¹
Neutrophils, % [5, 11]: 62.3%
Platelets [5, 11]: 188000 µL⁻¹
Red blood cells [5, 11]: 5.39e+06 µL⁻¹
liver enzymes ([5]; loading dose or weekly low dose intake, two donors): not altered

CC#CC(=O)N1CC[C@@H](n2c(=O)n(-c3ccc(Oc4ccccc4)cc3)c3c(N)ncnc32)C1.Cl [ONO/GS-4059]
collagen-induced platelet aggregation ([1]; static): equally well inhibited
platelet aggregation stimulated by TRAP, ADP or AA ([1]; static): only marginally
maximal suppression of plaque-induced platelet aggregation ([1]; static): 82%
IC50 [1, 6]: 1000 nM
concentration at which maximal suppression was reached [1, 12]: 2 µM
final platelet aggregate formation onto collagen fibers ([2]; shear rate 600/s): did not compromise

CC#CC(=O)N1CCC[C@H]1c1nc(-c2ccc(C(=O)Nc3ccccn3)cc2)c2c(N)nccn12 [acalabrutinib]
collagen-induced platelet aggregation ([1]; static): equally well inhibited
platelet aggregation stimulated by TRAP, ADP or AA ([1]; static): only marginally
maximal suppression of plaque-induced platelet aggregation ([1]; static): 80%
IC50 [1, 6]: 400 nM
concentration at which maximal suppression was reached [1, 12]: 1 µM
inhibition of platelet aggregation / thrombus formation onto plaque homogenate ([2]; 2 μM, shear rate 600/s): 96%
final platelet aggregate formation onto collagen fibers ([2]; shear rate 600/s): did not compromise
